T1: P-selectin (Homo sapiens, UniProt P16109)
T1 construct: host or cells: sickle cell disease patients (cited clinical trial)
T1 sequence (P16109 42-830): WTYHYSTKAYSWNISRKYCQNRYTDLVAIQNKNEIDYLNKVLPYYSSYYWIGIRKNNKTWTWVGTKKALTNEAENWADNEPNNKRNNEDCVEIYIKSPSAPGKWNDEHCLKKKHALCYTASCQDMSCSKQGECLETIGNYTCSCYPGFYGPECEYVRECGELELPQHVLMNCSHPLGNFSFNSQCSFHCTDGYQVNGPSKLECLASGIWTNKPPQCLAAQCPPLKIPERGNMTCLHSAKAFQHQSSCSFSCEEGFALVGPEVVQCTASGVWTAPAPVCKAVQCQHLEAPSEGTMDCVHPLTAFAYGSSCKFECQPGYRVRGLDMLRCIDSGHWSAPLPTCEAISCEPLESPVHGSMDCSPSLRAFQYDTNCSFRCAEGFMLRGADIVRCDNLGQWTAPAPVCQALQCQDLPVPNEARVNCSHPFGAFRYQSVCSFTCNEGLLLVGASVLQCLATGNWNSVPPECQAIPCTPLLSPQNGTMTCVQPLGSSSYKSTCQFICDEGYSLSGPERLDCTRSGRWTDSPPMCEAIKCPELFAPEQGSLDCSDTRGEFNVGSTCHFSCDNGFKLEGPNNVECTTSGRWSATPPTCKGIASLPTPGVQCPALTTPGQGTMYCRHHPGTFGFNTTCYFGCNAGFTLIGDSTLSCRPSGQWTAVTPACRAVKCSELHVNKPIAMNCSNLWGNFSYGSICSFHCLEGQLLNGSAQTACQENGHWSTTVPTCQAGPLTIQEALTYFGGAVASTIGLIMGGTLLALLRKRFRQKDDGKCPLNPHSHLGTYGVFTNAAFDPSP


Legend:
[1] = system: sickle cell mice; conditions: TNF-alpha treated sickle cell mice; cited from earlier work
[2] = system: JAK2V617F HUVECs; experiment: In vitro static adhesion on endothelial cells; format: cell-based, human; conditions: HUVECs pretreated 24 hours with hydroxyurea 100 μM
Experimental: Cell culture/Lentivirus transduction. Human umbilical venous endothelial cells (HUVECs, Lonza, Basel, Swiss) were cultured in EGM-2 media (Lonza, CC-3156) supplemented with EGM-2 Single Quots (Lonza, CC-4176). Cells were transduced with GFP lentivirus encoding human JAK2V617F or JAK2WT by adding lentiviral supernatant to the medium and incubating overnight at 37° C. An empty lentivirus encoding only for GFP was used as a negative control. Lentivirus were transduced at a multiplicity of infection of 20, allowing more than 95% of GFP positive cells. Transgene stability was verified after each passage and remaining stable throughout the passages. HUVECs were used for experiments between passage 5 and passage 7.
In vitro static adhesion on endothelial cells. Blood samples were performed from well healthy voluntary witnesses. Blood was diluted with PBS (1/2 dilution) and deposed on lymphocyte separation medium (Pancoll, Dominique Dutscher, Brumath, France) before centrifugation at 450 g during 20 minutes to obtain mononuclear cells (MNC). […] We visualized adherent cells using a fluorescent microscope (AxioObserver, Zeiss, Oberkochen, Germany) and analysed images by ZEN imaging software (Zeiss). Well surface was quantified in order to obtain the following ratio: number of adherent cells/mm2. […]

[3] = system: Pdgfb-iCreERT2;JAK2^V617F/WT mice; experiment: Intravital microscopy of mesenteric venules (leukocyte rolling and adhesion); format: in vivo; conditions: HU 200 mg/kg/day oral gavage 10 days, low dose TNF-alpha
From the text: (§1) Generation and characterization of Pdgfb-iCreERT2;JAK2^V617F/WT mice. The conditional flexed JAK2 (JAK2V617F/WT) mice were generously provided by J. L Villeval and have been previously described^19. The double-heterozygous Pdgfb-iCreERT2;JAK2^V617F/WT mice were generated by crossing JAK2^V617F/WT mice with Pdgfb-iCreERT2 mice allowing tamoxifen-inducible adult expression of JAK2^V617F in endothelium. Littermate Pdgfb-iCreERT2-negative;JAK2^V617F/WT mice were used as controls. To induce Cre activity in Pdgfb-iCreERT2;JAK2^V617F/WT mice, we used oral gavage of a single dose of 8 mg of tamoxifen. Tamoxifen induction was performed in 5 weeks-old animals. Mutant mice were analysed 2-3 weeks after tamoxifen administration. Ears of adult mice were genotyped by PCR. Haematocrit, hemoglobin level, platelet, and white cells count were determined using an automated counter (scil Vet abc Plus+) on blood collected from the sublingual vein in EDTA containing tubes. […]
Video analysis. Rolling leukocytes were quantitated by counting the number of rhodamin-marked cells passing a given plane perpendicular to the vessel axis in 30 seconds. Adherent leukocytes were quantitated by counting the number of rhodamin-marked cells motionless during 30 seconds. Vessel surface was quantitated to perform the following ratio: adherent cells/vessel surface (number of cells/cm2). […]

[4] = system: JAK2V617F HUVECs; experiment: Quantification of VWF in HUVEC supernatant; format: cell-based, human; conditions: 24 hours with 100 μM hydroxyurea
Experimental: Quantification of VWF in HUVEC supernatant and in HUVECs. HUVEC cell were seeded in 12 wells plate (Costar). When they were confluent, they were washed with 500 μL of PBS (Gibco ThermoFisher Scientific) before adding 500 μL of medium not deprived. Experiments were performed in absence or in presence of TNF-alpha (10 ng/ml during 24 hours) (Merck Millipore). After 24 hours, supernatant was removed, centrifuged at 12000 g during 5 minutes and stored at −80° C. To quantify vWF in HUVECs, cells were washed with PBS before adding in wells 500 μL of PBS. Cells were destroyed in wells with scrapper. Liquid was removed and 5 freezing and thawing successions were performed. Finally, the intracellular lysates were centrifuged at 12000 g during 5 minutes and stored at −80° C. As previously published^45, vWF was quantified following this method: […] plate (Greiner, Flat Bottom) were coated with an anti-vWF antibody (DAKO, Les Ulis, France, A0082) diluted at 1/660 in a coating buffer overnight at 4° C. After washing and blocking, sample of HUVEC supernatant and intracellular lysate were put in wells. Standards were realized with a platelet poor plasma from a healthy donor. […] After 2 minutes of coloration, the reaction was blocked with a H2SO4 3M solution and reading was performed at 492 nm with OPTIMA plate reader. […]

[5] = system: Pdgfb-iCreERT2;JAK2^V617F/WT mice; experiment: Mouse model of thrombus formation (low dose TNF-alpha induced lung thrombus formation); format: in vivo; conditions: HU 200 mg/kg/day oral gavage 10 days
From the text: as §1
Histology. To quantify thrombus formation in mice, Carstair's staining was performed. […] Thrombus quantification was performed using an optical microscope and pulmonary area was quantitated to perform the following ratio: thrombi number/pulmonary area (number of thrombi/cm2). Three slides by mice were analysed by two independent observers, blindly. […]

[6] = biological target: T1, P-selectin; conditions: clinical trial, patients; cited from earlier work

Molecule	leukocyte rolling in the microvasculature [1]	neutrophil adhesion on JAK2V617F HUVECs [2]	leukocyte adhesion [3]	leukocyte rolling [3]	vWF concentrations in the supernatant of JAK2V617F HUVECs [4]	thrombus formation in lungs [5]	pain crises in sickle cell disease [6]
NC(=O)NO [hydroxyurea]	reduction	significant reduction	reduction	reduction	decreased	significant inhibition	
crizanlizumab: anti-P-selectin antibody, SEG101 also named crizanlizumab (antibody, chains of the INN, looked up, V domains shown) VH: QVQLVQSGAEVKKPGASVKVSCKVSGYTFTSYDINWVRQAPGKGLEWMGWIYPGDGSIKYNEKFKGRVTMTVDKSTDTAYMELSSLRSEDTAVYYCARRGEYGNYEGAMDYWGQGTLVTVSS VL: DIQMTQSPSSLSASVGDRVTITCKASQSVDYDGHSYMNWYQQKPGKAPKLLIYAASNLESGVPSRFSGSGSGTDFTLTISSLQPEDFATYYCQQSDENPLTFGGGTKVEIK							efficiently prevented

Reference: patent US20200087403A1, “PHARMACEUTICAL COMPOSITIONS FOR THE TREATMENT OF THROMBOSIS IN PATIENTS SUFFERING FROM A MYELOPROLIFERATIVE NEOPLASM” (INSERM (INSTITUT NATIONAL DE LA SANTÉ ET DE LA RECHERCHE …, priority 2017, published 2020)
